Like-named read-outs stand apart in the source and are kept apart here.
Assay: Plasma pharmacokinetics, Arm II (oral BID), phase 1 trial
Format: in vivo, human
Conditions: for half-life: read-out: t1/2 (harmonic mean) (converted); for Cmax: read-out: Cmax
Procedure: Pharmacokinetics of ilorasertib were evaluated in the dose-escalation cohort on blood samples that were collected on cycle 1 days 1 and 15. Parameters determined: Cmax, time to Cmax (Tmax), terminal phase elimination half-life (t1/2), clearance, apparent oral clearance (CL/F), and area under the plasma concentration-time curve from time 0 to time of last measurable concentration (AUCt) and from time 0 to infinity (AUC∞). For Arm I, blood samples were collected prior to dosing and at 0.5, 1, 2, 3, 4, 6, 8, 10 or 12, and 24 h after dosing on cycle 1 days 1 and 15; of note, for institutions not able to collect the 10- or 12-h post-dose sample, the 24-h sample was replaced with 22-h and 28-h post-dose samples. In Arm II, for the first dose, blood samples were collected pre-dose and at 1, 2, 3, and 4 h post-dose on cycle 1 days 1 and 15; for the second dose, samples were collected pre-dose and at 1, 2, 3, 4, 18, and 24 h after second dose on cycle 1 days 1 and 15. In Arm III, blood samples were collected prior to infusion, at 1 h 55 min (just before end of infusion), and at 0.5, 1, 2, 4, 6, 8, 10, and 24 h after end of infusion on cycle 1 days 1 and 15; here also, for institutions not able to collect the 8-h or 10-h after-end-of-infusion samples, the 24-h sample was replaced with 22-h and 28-h post-dose samples. The liquid chromatography (LC)-mass spectrometry (MS)/MS method was developed and validated in the Bioanalysis Department of AbbVie. Fifty microliter of human plasma (K2EDTA as anticoagulant) was fortified with 300 μL of deuterium-stable labelled internal standard and mixed well. A HybridSPE precipitation plate (50 mg/96 wells, Supelco Analytical, Munich, Germany) was used to directly load and elute (under slight vacuum) the fortified samples into a clean collection plate. Samples were dried before reconstitution with 100 μL of 20/80 (v/v) acetonitrile/water, and injected for LC-MS/MS analysis. A Halo C8 (Wilmington, DE, USA; 2.7 μm, 2.1 × 30 mm) was used on an Agilent 1290 Infinity UPLC pump (Agilent Technologies, Santa Clara, CA) to carry out the separation. An isocratic condition with 25/75/0.1 (v/v/v) acetonitrile/water/98% formic acid was used as the mobile phase. The flow rate was set to be 0.6 mL/min. An MPS 3 C ([…] Ruhr, Germany) autosampler was used to introduce samples onto the UPLC system. An API 4000 mass spectrometer (Applied Biosystems, Foster City, CA) was used in the multiple reactions monitoring mode for the detection and quantitation of analyte. Descriptive statistics were used for demographic variables. The numbers and percentages of patients with treatment-emergent AEs (TEAEs) were tabulated using the Medical Dictionary for Regulatory Activities version 16.0 system organ class and preferred term, and further classified according to CTCAE version 4.0 criteria. The safety data set included all patients who received one or more doses of ilorasertib. The pharmacokinetic data set included all patients who received one or more doses of ilorasertib and had one or more pharmacokinetic samples. Values for pharmacokinetic parameters were determined using non-compartmental methods, with data analysed separately for each arm. A repeated measures analysis was performed for Tmax and dose-normalised Cmax, AUCt, and AUC∞. The model included random effects for patient and fixed effects for dose level, day, and the interaction of dose level and day. To assess effects of exposure on pharmacodynamic biomarkers, Cmax was employed as the directly measured marker of exposure for the rapid changes in DBP and PlGF pre-steady-state, while AUC∞ reflected exposure variability at the time of post-multiple-dose skin biopsy. Descriptive statistics were used to summarise ECOG performance status. The efficacy data set included all patients who received one or more doses of ilorasertib.

[1] = human, plasma, po, 40 mg, Arm II PO BID 40 mg, day 1, N=2, mean (individual)
[2] = human, plasma, po, 40 mg, Arm II PO BID 40 mg, day 1, N=3
[3] = human, plasma, po, 40 mg, Arm II PO BID 40 mg, day 15, N=3
[4] = human, plasma, po, 60 mg, Arm II PO BID 60 mg, day 1, N=3
[5] = human, plasma, po, 60 mg, Arm II PO BID 60 mg, day 15, N=1
[6] = human, plasma, po, 60 mg, Arm II PO BID 60 mg, day 15, N=3
[7] = human, plasma, po, 90 mg, Arm II PO BID 90 mg, day 1, N=2, mean (individual)
[8] = human, plasma, po, 90 mg, Arm II PO BID 90 mg, day 15, N=3
[9] = human, plasma, po, 130 mg, Arm II PO BID 130 mg, day 1, N=3
[10] = human, plasma, po, 130 mg, Arm II PO BID 130 mg, day 1, N=4
[11] = human, plasma, po, 130 mg, Arm II PO BID 130 mg, day 15, N=1
[12] = human, plasma, po, 130 mg, Arm II PO BID 130 mg, day 15, N=3
[13] = human, plasma, po, 190 mg, Arm II PO BID 190 mg, day 15, N=2, mean (individual)
[14] = human, plasma, po, 190 mg, Arm II PO BID 190 mg, day 15, N=5
[15] = human, plasma, po, 230 mg, Arm II PO BID 230 mg, day 1, N=2, mean (individual)
[16] = human, plasma, po, 230 mg, Arm II PO BID 230 mg, day 1, N=3
[17] = human, plasma, po, 230 mg, Arm II PO BID 230 mg, day 15, N=1
[18] = human, plasma, po, 230 mg, Arm II PO BID 230 mg, day 15, N=4
[19] = human, plasma, po, 340 mg, Arm II PO BID 340 mg, day 1, N=1
[20] = human, plasma, po, 340 mg, Arm II PO BID 340 mg, day 1, N=3
[21] = human, plasma, po, 340 mg, Arm II PO BID 340 mg, day 15, N=1

For `Nc1ncc(-c2cnn(CCO)c2)c2scc(-c3ccc(NC(=O)Nc4cccc(F)c4)cc3)c12` [ilorasertib, Ilorasertib], the Tmax (Arm II, oral administration in two divided doses, versus Arm I) was “delayed by several hours”, the AUC(0-inf) [1] was 3990 ng·h/mL and the half-life [1] was 11 h. For the same compound, the AUC(0-t) [2] was 3720 ± 1640 ng·h/mL, the Cmax [2] was 250 ± 120 ng/mL and the Tmax (human, plasma, po, 40 mg, Arm II PO BID 40 mg, day 1, N=3, read-out: Tmax) was 7.3 ± 3.8 h. The AUC(0-t) [3] was 3750 ± 2050 ng·h/mL, the Cmax [3] was 190 ± 110 ng/mL and the Tmax (human, plasma, po, 40 mg, Arm II PO BID 40 mg, day 15, N=3, read-out: Tmax) was 10 h. The AUC(0-t) [4] was 5450 ± 1460 ng·h/mL, the Cmax [4] was 380 ± 140 ng/mL and the Tmax (human, plasma, po, 60 mg, Arm II PO BID 60 mg, day 1, N=3, read-out: Tmax) was 5.7 ± 3.8 h. For the same compound, the AUC(0-inf) [5] was 5430 ng·h/mL, the half-life [5] was 11.8 h and the AUC(0-t) [6] was 2920 ± 710 ng·h/mL. It also gave a Cmax [6] of 230 ± 60 ng/mL, a Tmax (human, plasma, po, 60 mg, Arm II PO BID 60 mg, day 15, N=3, read-out: Tmax) of 4.8 ± 2.8 h and an AUC(0-inf) [7] of 4030 ng·h/mL. For the same compound, the half-life [7] was 10.1 h, the AUC(0-t) (human, plasma, po, 90 mg, Arm II PO BID 90 mg, day 1, N=3) was 3920 ± 1530 ng·h/mL and the Tmax (human, plasma, po, 90 mg, Arm II PO BID 90 mg, day 1, N=3, read-out: Tmax) was 9 ± 1 h. For the same compound, the AUC(0-inf) (human, plasma, po, 90 mg, Arm II PO BID 90 mg, day 15, N=2, mean (individual)) was 5330 ng·h/mL, the AUC(0-t) [8] was 4060 ± 1510 ng·h/mL and the Cmax [8] was 320 ± 100 ng/mL. The Tmax (human, plasma, po, 90 mg, Arm II PO BID 90 mg, day 15, N=3, read-out: Tmax) was 7.6 ± 5.4 h, the AUC(0-inf) [9] was 6530 ± 4460 ng·h/mL and the half-life [9] was 18.6 ± 17.6 h. It also gave an AUC(0-t) [10] of 5070 ± 3180 ng·h/mL, a Cmax [10] of 600 ± 390 ng/mL and a Tmax (human, plasma, po, 130 mg, Arm II PO BID 130 mg, day 1, N=4, read-out: Tmax) of 7.5 ± 1.7 h. The AUC(0-inf) [11] was 3960 ng·h/mL, the half-life [11] was 7.5 h and the AUC(0-t) [12] was 2400 ± 1290 ng·h/mL. It also gave a Cmax [12] of 260 ± 280 ng/mL, a Tmax (human, plasma, po, 130 mg, Arm II PO BID 130 mg, day 15, N=3, read-out: Tmax) of 11 ± 11.5 h and an AUC(0-inf) (human, plasma, po, 190 mg, Arm II PO BID 190 mg, day 1, N=4) of 17800 ± 11300 ng·h/mL. It also gave a Cmax (human, plasma, po, 190 mg, Arm II PO BID 190 mg, day 1, N=7) of 540 ± 280 ng/mL, a Tmax (human, plasma, po, 190 mg, Arm II PO BID 190 mg, day 1, N=7, read-out: Tmax) of 10.2 ± 6.7 h and an AUC(0-inf) [13] of 10700 ng·h/mL. The half-life [13] was 8.4 h, the AUC(0-t) [14] was 6690 ± 5220 ng·h/mL and the Cmax [14] was 630 ± 380 ng/mL. It also gave a Tmax (human, plasma, po, 190 mg, Arm II PO BID 190 mg, day 15, N=5, read-out: Tmax) of 13.2 ± 10.2 h, an AUC(0-inf) [15] of 9140 ng·h/mL and a half-life [15] of 9 h. It also gave an AUC(0-t) [16] of 10100 ± 3620 ng·h/mL, a Cmax [16] of 700 ± 230 ng/mL and a Tmax (human, plasma, po, 230 mg, Arm II PO BID 230 mg, day 1, N=3, read-out: Tmax) of 8.7 ± 1.2 h. For the same compound, the AUC(0-inf) [17] was 13000 ng·h/mL, the half-life [17] was 8 h and the AUC(0-t) [18] was 11200 ± 4340 ng·h/mL. For the same compound, the Cmax [18] was 790 ± 460 ng/mL, the Tmax (human, plasma, po, 230 mg, Arm II PO BID 230 mg, day 15, N=4, read-out: Tmax) was 9.5 ± 0.6 h and the AUC(0-inf) [19] was 98800 ng·h/mL. For the same compound, the half-life [19] was 39.6 h, the AUC(0-t) [20] was 39300 ± 14800 ng·h/mL and the Cmax [20] was 2040 ± 870 ng/mL. For the same compound, the Tmax (human, plasma, po, 340 mg, Arm II PO BID 340 mg, day 1, N=3, read-out: Tmax) was 15 ± 8 h, the AUC(0-t) [21] was 15700 ng·h/mL and the Cmax [21] was 770 ng/mL. It also gave a Tmax (human, plasma, po, 340 mg, Arm II PO BID 340 mg, day 15, N=1, read-out: Tmax) of 10 h, a Tmax (human, plasma, po, Arm II PO BID all doses, day 1, N=26, read-out: Tmax) of 9.2 ± 5 h and a Tmax (human, plasma, po, Arm II PO BID all doses, day 15, N=22, read-out: Tmax) of 9.7 ± 6.6 h.
